Source: US20080004282A1, “Compositions and methods for modulating gated ion channels” (PainCeptor Pharma Corporation, priority 2006, published 2008)

target: T1, ASIC1a (Homo sapiens, UniProt P78348); experiment: Two-electrode voltage clamp of acid-induced currents in Xenopus laevis oocytes; assay type: cell-based; parameters: expressed in transfected cells; host or cells: Xenopus laevis oocytes, nuclear microinjection of an expression vector such as pCDNA3; details: 50 μM, Xenopus oocytes; read-out: % inh. at 50 μM (Xo)
T1 sequence (P78348 1-528): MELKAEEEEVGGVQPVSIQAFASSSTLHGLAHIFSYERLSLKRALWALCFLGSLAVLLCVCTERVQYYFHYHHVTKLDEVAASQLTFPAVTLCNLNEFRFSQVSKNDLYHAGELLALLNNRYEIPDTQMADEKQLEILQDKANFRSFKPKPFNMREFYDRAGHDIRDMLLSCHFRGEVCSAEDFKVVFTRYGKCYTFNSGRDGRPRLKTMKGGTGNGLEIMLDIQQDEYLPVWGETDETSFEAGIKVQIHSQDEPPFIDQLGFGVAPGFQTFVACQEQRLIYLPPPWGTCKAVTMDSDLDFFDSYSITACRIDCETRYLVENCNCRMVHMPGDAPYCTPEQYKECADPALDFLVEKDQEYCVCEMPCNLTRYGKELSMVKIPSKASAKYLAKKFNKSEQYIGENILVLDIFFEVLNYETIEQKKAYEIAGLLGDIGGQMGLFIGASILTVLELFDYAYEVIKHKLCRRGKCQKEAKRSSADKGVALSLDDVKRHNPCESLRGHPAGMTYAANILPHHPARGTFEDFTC
Description: Screening and Bioanalysis of ASIC Antagonists in Xenopus laevis oocytes
This example describes the in vitro assessment of the activity of the compounds of the present invention.
Two-electrode voltage clamp electrophysiological assays in Xenopus laevis oocytes expressing gated ion channels are performed as follows:
Oocytes are surgically removed from adult Xenopus laevis and treated for 2 h at room temperature with 1 mg/ml type I collagenase (Sigma) in Barth's solution under mild agitation. Selected oocytes at stage IV-V are defolliculated manually before nuclear microinjection of 2.5-5 ng of a suitable expression vector, such as pCDNA3, comprising the nucleotide sequence encoding a gated ion channel subunit protein. In such an experiment, the oocytes express homomultimeric proton-gated ion channels on their surface. In an alternate experiment, one, two, three or more vectors comprising the coding sequences for distinct gated ion channel subunits are co-injected in the oocyte nuclei. In the latter case, oocytes express heteromultimeric proton-gated ion channels. For example, ASIC2a and/or ASIC3 subunits in pcDNA3 vector are co-injected at a 1:1 cDNA ratio. After 2-4 days of expression at 19° C. in Barth's solution containing […] gentamicin and 1.8 mM CaCl2, gated ion channels are activated by applying an acidic solution (pH<7) and currents are recorded in a two electrode voltage-clamp configuration, using an OC-725B amplifier (Warner Instruments). Currents are acquired and digitized at 500 Hz on an Apple Imac G3 computer with an A/D NB-MIO-16XL interface (National Instruments) and recorded traces are post-filtered at 100 Hz in Axograph (Axon Instruments) (Neher, E. and Sakmann, B. (1976) Nature 260:799-802). Once impaled with the microelectrodes, oocytes are continuously superfused at 10-12 ml/min with a modified Ringer's solution containing 97 mM NaCl, 2 mM KCl, 1.8 mM CaCl2, and 10 mM HEPES brought to pH 7.4 with NaOH (Control Ringer). Test Ringer solution is prepared by replacing HEPES with MES and adjusting the pH to the desired acidic value. Compounds of the present invention are prepared in both the Control and Test Ringer solutions and applied to oocytes at room temperature through a computer-controlled switching valve system. Osmolarity of all solutions is adjusted to 235 mOsm with choline chloride. Similarly, recordings can also be acquired in an automated multichannel oocytes system as the OpusExpress™ (Molecular Devices, Sunnyvale, USA).
FIGS. 1A and 2A illustrate the inhibitory effects of Compounds 12 and 44 on acid-induced activation of recombinant homomeric hASIC1a channels. FIGS. 1A and 2A show the dose-dependent inhibition of the acid-induced hASIC1a currents recorded from Xenopus laevis oocytes using the two-electrode voltage clamp method (as described in this example) in the absence or presence of increasing concentration of the compounds.

SMILES	inhibition at 50 µM [%]
Cc1cc2c(N)c(C#N)cc(-c3ccccc3)c2cn1 [Compound 31]	> 30
CCN1CCc2c(-c3ccncc3)cc(C#N)c(N)c2C1 [Compound 55]	< 20
CCN1CCc2c(cc(N3C(=O)CNC3=O)cc2-c2cc(F)ccc2OC)C1 [Compound 28]	20 to 30
CCN1CCc2c(-c3ccccc3)cc(C#N)c(N3C(=O)CCC3=O)c2C1 [Compound 58]	20 to 30
CCN1CCc2c(-c3cc(F)ccc3OC)ccc(NC(=O)NC(=O)N3C(=O)CN(c4ccc(-c5cc(F)ccc5OC)c5c4CN(CC)CC5)C3=O)c2C1 [Compound 26]	> 30
CCN1CCc2c(-c3cc(F)ccc3OC)ccc(NC(N)=O)c2C1 [Compound 23]	20 to 30
CCN1CCc2c(-c3ccccc3)cc(Br)c(N)c2C1 [Compound 46]	> 40
CCN1CCc2c(-c3ccccc3)cc(C#N)c(Br)c2C1 [Compound 61]	> 30
CCN1CCc2c(-c3ccccc3)cc(C#N)c([N+](=O)[O-])c2C1 [Compound 51]	20 to 30
CCN1CCc2c(-c3ccccc3)cc(-c3ccccn3)c(N)c2C1 [Compound 36]	< 20
CCN1CCc2c(-c3ccccc3)cc(Br)c(N(C)C)c2C1 [Compound 49]	20 to 30
CCN1CCc2c(-c3ccccc3)cc(C#N)c(N3CCCC3)c2C1 [Compound 53]	> 40
CCN1CCc2c(-c3ccccc3)cc(C#N)c(Cl)c2C1 [Compound 52]	25 to 35
CCN1CCc2c(-c3ccccc3)ccc(N)c2C1 [Compound 35]	20 to 30
CCN1CCc2c(-c3ccccc3)cc(C#N)c(NC(=O)CC(=O)OC)c2C1 [Compound 14, N-(7-Cyano-2-ethyl-5-phenyl-1,2,3,4-tetrahydro-isoquinolin-8-yl)-malonamic acid methyl ester]	20 to 30
CCN1CCc2c(-c3ccccc3)cc(C#N)c(O)c2C1 [Compound 42]	20 to 30
CCN1CCc2c(-c3ccccc3)cc(-c3cccc(C)n3)c(N)c2C1 [Compound 40]	> 30
CCN1CCc2c(-c3cc(F)ccc3OC)ccc(NC)c2C1 [Compound 34]	> 40
CCN1CCc2c(-c3ccccc3)cc(C#N)c(NC(C)=O)c2C1 [Compound 8, N-(7-Cyano-2-ethyl-5-phenyl-1,2,3,4-tetrahydro-isoquinolin-8-yl)-acetamide]	20 to 30
CCN1CCc2c(-c3ccccc3)cc(C#N)c(N(S(C)(=O)=O)S(C)(=O)=O)c2C1 [Compound 56]	< 20
CCN1CCc2c(-c3cc(F)ccc3OC)ccc(N3C(=O)CNC3=O)c2C1 [Compound 22]	< 20

SMILES	inhibition at 50 µM [%]
CCN1CCc2c(-c3cc(F)ccc3OC)ccc(N3CC(=O)NC3=O)c2C1 [Compound 25]	> 40
CCN1CCc2c(-c3cc(C)ccc3C)cc(C#N)c(N)c2C1 [Compound 47]	> 40
CCN1CCc2c(-c3ccccc3)cc(C#N)c(-c3cccnc3)c2C1 [Compound 60]	45 to 55
CCN1CCc2c(-c3ccccc3)cc(C#N)c(-c3cnn(C)c3)c2C1 [Compound 62]	> 30
CCN1CCc2c(-c3ccccc3)cc(-c3cnccn3)c(N)c2C1 [Compound 37]	> 30
COc1ccc(F)cc1-c1cc(-c2noc(=O)[nH]2)c(N)c2c1CCN(C)C2 [Compound 5, 3-[8-Amino-5-(5-fluoro-2-methoxy-phenyl)-2-methyl-1,2,3,4-tetrahydro-isoquinolin-7-yl]-4H-[1,2,4]oxadiazol-5-one]	< 20
CCN1CCc2c(-c3cc(F)ccc3OC)ccc(NC=O)c2C1 [Compound 27]	< 20
CC(=O)N1CCc2c(-c3ccccc3)cc(C#N)c(N)c2C1 [Compound 29]	20 to 30
CCN1CCc2c(-c3ccccc3)cc(C#N)c(NS(C)(=O)=O)c2C1 [Compound 9, N-(7-Cyano-2-ethyl-5-phenyl-1,2,3,4-tetrahydro-isoquinolin-8-yl)-methanesulfonamide]	15 to 25
CCN1CCc2c(-c3ccccc3)cc(C#N)c(NC(=O)C(=O)OC)c2C1 [Compound 57]	< 20
N#Cc1cc(-c2ccccc2)c2ccncc2c1N [Compound 30]	20 to 30
CCN1CCc2c(-c3ccccc3)cc(-c3cnn(C)c3N)c(N)c2C1 [Compound 38]	> 30
CCN1CCc2c(-c3ccccc3)cc(C#N)c(-n3cccc3)c2C1 [Compound 59]	> 50
CCN1CCc2c(-c3ccccc3)cc(-c3ccc(C)nn3)c(N)c2C1 [Compound 39]	20 to 30
CCN1CCc2c(cc(C#N)cc2-c2ccccc2)C1 [Compound 41]	> 30
Cc1cc2c(N)c(-c3ccccc3)cc(C#N)c2cn1 [Compound 32]	> 30
CCN1CCc2c(-c3cc(F)ccc3OC)ccc(NCC(=O)OC)c2C1 [Compound 2, [2-Ethyl-5-(5-fluoro-2-methoxy-phenyl)-1,2,3,4-tetrahydro-isoquinolin-8-ylamino]-acetic acid methyl ester]	< 20
CCN1CCc2c(-c3cccnc3)cc(C#N)c(N)c2C1 [Compound 54]	> 50
CCN1CCc2c(-c3ccccc3)cc(/C(N)=N/O)c(N)c2C1 [Compound 33]	> 30
CCOC(=O)CNC(=O)Nc1ccc(-c2cc(F)ccc2OC)c2c1CN(CC)CC2 [Compound 24]	20 to 30
